Results: patent US6599925B2 (Wyeth, priority 2001, dated 2003)

How the values were obtained:
[1] = target: human PAI-1 (Homo sapiens, UniProt P05121); assay: Assay for determining IC50 of inhibition of PAI-1 (Antibody Assay); format: binding; settings: footnote a: determined by the Antibody Assay; active PAI-1 bound to tPA-coated plate, pH 7.5
Description: Assay for Determining IC50 of Inhibition of PAI-1
This assay is based upon the non-SDS dissociable interaction between tPA and active PAI-1. Assay plates are initially coated with human tPA (10 μg/ml). Test compounds are dissolved in DMSO at 10 mM, then diluted with physiologic buffer (pH 7.5) to a final concentration of 1-50 μM. The test compounds are incubated with human PAI-1 (50 ng/ml) for 15 minutes at room temperature. The tPA-coated plate is washed with a solution of 0.05% Tween 20 and 0.1% BSA, then the plate is blocked with a solution of 3% BSA. An aliquot of the test compound/PAI-1 solution is then added to the tPA-coated plate, incubated at room temperature for 1 hour, and washed. Active PAI-1 bound to the plate is assessed by adding an aliquot of a 1:1000 dilution of the 33B8 monoclonal antibody against human PAI-1, and incubating the plate at room temperature for 1 hour (Molecular Innovations, Royal Oak, Mich.). The plate is again washed, and a solution of goat anti-mouse IgG-alkaline phosphatase conjugate is added at a 1:50,000 dilution in goat serum. The plate is incubated 30 minutes at room temperature, washed, and a solution of alkaline phosphatase substrate is added. The plate is incubated 45 minutes at room temperature, and color development is determined at OD405nm. The quantitation of active PAI-1 bound to tPA at varying concentrations of the test compound is used to determine the IC50. Results are analyzed using a logarithmic best-fit equation. The assay sensitivity is 5 ng/ml of human PAI-1 as determined from a standard curve ranging from 0-100 ng/ml.

Sequence of human PAI-1 (P05121 24-402): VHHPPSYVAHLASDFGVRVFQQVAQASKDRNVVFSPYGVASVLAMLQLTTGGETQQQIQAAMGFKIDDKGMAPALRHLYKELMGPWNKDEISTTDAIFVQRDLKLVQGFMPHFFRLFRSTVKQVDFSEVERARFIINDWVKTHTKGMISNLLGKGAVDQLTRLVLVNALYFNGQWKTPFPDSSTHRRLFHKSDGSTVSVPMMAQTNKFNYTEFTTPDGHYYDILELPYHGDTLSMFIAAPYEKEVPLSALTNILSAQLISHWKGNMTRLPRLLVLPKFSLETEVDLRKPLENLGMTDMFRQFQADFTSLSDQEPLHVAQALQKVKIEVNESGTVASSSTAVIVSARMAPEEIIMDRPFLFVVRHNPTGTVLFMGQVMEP

Structure (SMILES) | IC50 [1] [µM] | melting point
CCCCC(=O)c1c(-c2ccc3c(-c4ccccc4)c(OCC(=O)[O-])ccc3c2)oc2ccccc12.[Na+] [Example 14, 2-{[6-(3-Pentanoyl-1-benzofuran-2-yl)-1-phenyl-2-naphthyl]oxy}acetic acid, sodium salt] | 2.7 | 272 to 273 °C (dec.)
CCCCC(=O)c1c(-c2ccc3c(-c4ccccc4)c(OCc4nnn[nH]4)ccc3c2)oc2ccccc12 [Example 16, 1-{2-[5-Phenyl-6-(1H1,2,3,4-tetraazol-5-ylmethoxy)-2-naphthyl]-1-benzofuran-3-yl}-1-pentanone] | 10 | 160 to 164 °C
O=C(O)COc1ccc2cc(-c3oc4ccccc4c3C(=O)CC3CCCC3)ccc2c1Br [Example 17, 2-({1-Bromo-6-[3-(2-cyclopentylacetyl)-1-benzofuran-2-yl]-2-naphthyl}oxy)acetic acid] | 2.7 | 150 to 152 °C
CCCCC(=O)c1c(-c2ccc3c(C)c(OCc4nnn[nH]4)ccc3c2)oc2ccccc12 [Example 20, 1-{2-[5-Methyl-6-(1H-1,2,3,4-tetraazol-5-ylmethoxy)-2-naphthyl]-1-benzofuran-3-yl}-1-pentanone] | 24.2 | 162 to 164 °C
CCCCC(=O)c1c(-c2ccc3c(C)c(OCC(=O)O)ccc3c2)oc2ccccc12 [Example 22, 2-{[1-Methyl-6-(3-pentanoyl-1-benzofuran-2-yl)-2-naphthyl]oxy}acetic acid] | 13.3 | 153 to 155 °C
CCCCC(=O)c1c(-c2ccc3c(C)c(OC(Cc4ccccc4)C(=O)[O-])ccc3c2)oc2ccccc12.[Na+] (stereo not shown) [Example 23, 2-{[1-Methyl-6-(3-pentanoyl-1-benzofuran-2-yl)-2-naphthyl]oxy}-3-phenylpropanoic acid, sodium salt] | 12.4 | 221 to 222 °C
CCCCC(=O)c1c(-c2ccc3c(Cl)c(OCC(=O)O)ccc3c2)oc2ccccc12 [Example 24, 2-{[1-Chloro-6-(3-pentanoyl-1-benzofuran-2-yl)-2-naphthyl]oxy}acetic acid] | 11 | 142 to 143 °C
CCCCC(=O)c1c(-c2ccc3c(Cl)c(OCc4nnn[nH]4)ccc3c2)oc2ccccc12 [Example 25, 1-{2-[5-Chloro-6-(1H-1,2,3,4-tetraazol-5-ylmethoxy)-2-naphthyl]-1-benzofuran-3-yl}-1-pentanone] | 14 | 168 to 169 °C
O=C(O)COc1ccc2cc(-c3oc4ccccc4c3-c3ccccc3)ccc2c1-c1ccccc1 [Example 29, {[1-Phenyl-6-(3-phenyl-1-benzofuran-2-yl)-2-naphthyl]oxy}acetic acid] | 3.85 | 202 to 203 °C
CCCCCc1c(-c2ccc3cc(OCc4nnn[nH]4)ccc3c2)oc2ccccc12 [Example 34, 5-[6-(3-Pentyl-benzofuran-2-yl)-naphthalen-2-yloxymethyl]-1H-tetrazole] | 8.17 | 178 to 180 °C
CCCCCc1c(-c2ccc3c(Br)c(OCC(=O)O)ccc3c2)oc2ccccc12 [Example 36, [1-Bromo-6-(3-pentyl-benzofuran-2-yl)-naphthalen-2-yloxy]-acetic acid] | 6.54 | 159 to 161 °C
